Legend:
[1] = tested on: DNA polymerase; experiment: Screen of PEMs for enhancement of XNTP polymerization (primer extension reaction, gel electrophoresis); format: biochemical; settings: for DNA polymerase-mediated primer extension with XNTPs (length of extension products): FIG. 4 gel, no PEM additive: up to only around 14 XNTPs
From the text: The Sequencing by Expansion (SBX) methodology developed by the inventors provides significant performance enhancements in sequence read efficiency and accuracy of Xpandomers relative to native DNA. However, initial transcription of the sequence of the natural DNA template onto the measurable Xpandomer relies on the ability of DNA polymerase to utilize XNTPs as substrates (the generalized structure of an XNTP is discussed herein with reference to FIG. 1A and FIG. 2). […] In an effort to improve the efficiency and accuracy of XNTP polymerization into Xpandomers, several PEMs were screened for the ability to enhance DNA polymerase primer extension reactions using XNTPs as substrates.
A representative primer extension reaction may include the following reagents: 2 pmol primer, 2.2 pmol 45mer oligonucleotide template, 50 pmol of each XNTP (XATP, XCTP, XGTP, and XTTP), 50 Mm Tris HCl, Ph 6.79, 200 Mm NaCl, 20% PEG, 5% NMS, 0.5 nmol polyphosphate 60.19, 0.3 Mm MnCl2, and 0.6 μg of purified recombinant DNA polymerase protein. Reactions may be run for 1 hr at 23° C. Reaction products (i.e., constrained Xpandomers) are treated to cleave the phosphoramidate bonds, thereby generating linearized Xpandomers. Reaction products may be analyzed using gel electrophoresis on 4-12% acrylamide gels to resolve and visualize Xpandomer products of different lengths. For the PEM screen described above, PEMs were typically tested in the micro to millimolar range.
Again, this PEM activity is specific for compound 2, as other unrelated aromatic compounds had no effect (lanes 2-7).

[2] = molecular target: T1, C4552 DNA polymerase (Saccharolobus solfataricus, UniProt Q97W02, A155G/A42V/D156R/D292Y/D294N/E291S/E324K/E325K/E327K/E79L/G187P/G299W/I153V/I189F/I248T/I295S/K152A/K317Q/K321Q/K56Y/K78D/L293W/M76W/N188Y/P184Q/Q82W/Q83G/R300S/S297Y/S86E/T290K/T301W/V289W/V296Q); experiment: Primer extension assay with three 100mer templates derived from the HIV1, 2 and 3 genomes; format: biochemical, Sulfolobus solfataricus; settings: 0.5 Mm PEM; HIV1, HIV2, HIV3 100mer templates; 30 minutes at 23° C.; FIG. 9
T1 construct: made in house
Procedure: PEM activity of compounds 9-11 was tested in primer extension assays using three 100mer templates, derived from the HIV1, 2, and 3 genomes. Primer extension reactions included the following reagents: 75 Mm TrisCl, Ph 8.44, 175 Mm NH4Oac, 20% PEG8K, 5% NMS, 0.8 nmol PP-60.20, 0.6 Mm MnCl2, 2.3 μg Tth single-strand binding protein (SSB), 0.5 M or 1 M urea, 200 pmol each XNTP, 1.1 pmol template, 1 pmol oligonucleotide primer, 1.2 μg purified recombinant C4552 DNA polymerase, and 0.5 Mm PEM. 10 μL primer extension reactions were run for 30 minutes at 23° C. and reaction products were analyzed by gel electrophoresis.

[3] = molecular target: T2, C4760 DNA polymerase (a variant of DPO4, SEQ ID NO:2) (Saccharolobus solfataricus, UniProt Q97W02, A155G/A42V/D156R/D292Y/D294N/E291S/E324K/E325K/E327K/E63R/E79L/G187P/G299W/I153V/I189F/I248T/I295S/K152A/K317Q/K321Q/K56Y/K78D/L293W/M76W/N188Y/P184Q/Q82W/Q83G/R300S/S297Y/S86E/T290K/T301W/V289W/V296Q); experiment: Primer extension assay with the HIV2 100mer template; format: biochemical, Sulfolobus solfataricus; settings: HIV2-derived 100mer template; for polymerization of XNTPs into lengthy Xpandomer copies (PEM activity): 2 Mm compound 16, 0.5, 1, 2, and 3 Mm compound 17, Kod SSB, 30 minutes at 37° C., FIG. 13
T2 construct: made in house
Procedure: PEM activity of compound 12 was tested in primer extension assays using the HIV2 100mer template. Primer extension reactions included the following reagents: 50 Mm TrisCl, 200 Mm NH4Oac, 20% PEG8K, 5% NMS, 0.6 nmol PP-60.20, 0.6 Mm MnCl2, 2.75 μg/μl Eco single-strand binding protein (SSB), 1 M urea, 50 pmol each XNTP, 1.1 pmol template, 1 pmol oligonucleotide primer, 1.2 μg/μl purified recombinant C4760 DNA polymerase (SEQ ID NO:2), and 0.5, 1, or 1.5 Mm PEM. 10 μL primer extension reactions were run for 30 minutes at 23° C. and reaction products were analyzed by gel electrophoresis. […] Lanes 2-4 show primer extension products from reactions with a structurally related additive lacking robust PEM activity.
PEM activity of compounds 13 and 14 was tested in primer extension assays using the HIV2 100mer template. Primer extension reactions included the following reagents: 50 Mm TrisCl, 200 Mm NH4Oac, 20% PEG8K, 5% NMS, 0.6 nmol PP-60.20, 0.6 Mm MnCl2, 2.75 μg/μl Eco single-strand binding protein (SSB), 1 M urea, 50 pmol each XNTP, 1.1 pmol template, 1 pmol oligonucleotide primer, 1.2 μg/μl purified recombinant C4760 DNA polymerase (a variant of DPO4, see SEQ ID NO:2), and 0.5, 1, 1.52, or 2.5 Mm PEM. 10 μL primer extension reactions were run for 30 minutes at 23° C. and reaction products were analyzed by gel electrophoresis. A representative gel showing primer extension products is presented in FIG. 11 (the position of the full length HIV2 100mer is indicated by the arrow).
PEM activity of compounds 16, 17, and 18 and combinations thereof were tested in primer extension assays using the HIV2-derived 100mer template. Primer extension reactions included the following reagents: 50 Mm TrisCl, 200 Mm NH4Oac, 20% or 25% PEG8K, 5% NMS, 0.6 nmol PP-60.20, 0.6 Mm MnCl2, 2 μg Kod single-strand binding protein (SSB), 1 M urea, 50 pmol each XNTP, 1 pmol template, 1 pmol oligonucleotide primer, 1.2 μg purified recombinant C4760 DNA polymerase (a variant of DPO4, see SEQ ID NO:2), and 0.5-2 Mm PEM. 10 μL primer extension reactions were run for 30 minutes at 37° C. and reaction products were analyzed by gel electrophoresis. A representative gel showing primer extension products is presented in FIG. 13 (the position of a 100mer product is indicated by the arrow).

[4] = molecular target: T2, C4760 DNA polymerase (a variant of DPO4, SEQ ID NO:2); experiment: Primer extension on a 45mer RNA template derived from the HIV2 genome sequence; format: biochemical, Sulfolobus solfataricus; settings: 2 Mm PEM; 45mer RNA template from HIV2 genome; 30 minutes at 37° C.
Procedure: To begin to investigate the potential of PEMs to enhance diverse polymerase reactions, the ability of PEMS to enable DNA polymerase to utilize RNA as a template was tested. An initial screen of several compounds set forth in Table I was conducted using a 45mer RNA template derived from the HIV2 genome sequence. Primer extension reactions included the following reagents: 50 Mm TrisCl, 200 Mm NH4Oac, 20% PEG8K, 5% NMS, 0.6 nmol PP-60.20, 0.6 Mm MnCl2, 2 μg Kod single-strand binding protein (SSB), 1 M urea, 50 pmol each XNTP, 0.5 pmol template, 0.5 pmol oligonucleotide primer, 1.2 μg purified recombinant C4760 DNA polymerase (a variant of DPO4, see SEQ ID NO:2), and 2 Mm PEM. 10 μL primer extension reactions were run for 30 minutes at 37° C. and reaction products were analyzed by gel electrophoresis.

T2 sequence (Q97W02 other isoform, or with tags, fused parts or gaps with the stated changes): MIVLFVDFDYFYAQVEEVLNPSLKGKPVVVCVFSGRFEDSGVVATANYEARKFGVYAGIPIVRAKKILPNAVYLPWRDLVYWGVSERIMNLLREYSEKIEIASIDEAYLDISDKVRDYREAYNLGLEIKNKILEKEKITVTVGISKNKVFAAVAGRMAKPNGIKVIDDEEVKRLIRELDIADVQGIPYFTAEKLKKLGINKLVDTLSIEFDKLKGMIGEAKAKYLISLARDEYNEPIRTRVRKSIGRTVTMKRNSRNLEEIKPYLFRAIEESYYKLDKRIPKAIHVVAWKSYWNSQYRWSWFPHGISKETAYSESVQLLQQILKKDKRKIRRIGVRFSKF
T1 sequence (Q97W02 other isoform, or with tags, fused parts or gaps with the stated changes): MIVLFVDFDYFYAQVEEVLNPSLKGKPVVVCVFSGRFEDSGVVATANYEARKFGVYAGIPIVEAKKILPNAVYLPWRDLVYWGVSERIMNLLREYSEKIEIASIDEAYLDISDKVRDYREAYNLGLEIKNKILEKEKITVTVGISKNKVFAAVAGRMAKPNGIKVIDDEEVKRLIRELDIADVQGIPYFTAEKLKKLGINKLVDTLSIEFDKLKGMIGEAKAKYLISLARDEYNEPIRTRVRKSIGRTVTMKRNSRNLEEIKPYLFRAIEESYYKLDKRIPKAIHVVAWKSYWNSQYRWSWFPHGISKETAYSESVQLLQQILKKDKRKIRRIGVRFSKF

O=C(O)c1ccc(-n2cc(-c3cncc(-c4cn(-c5ccc(C(=O)O)c(O)c5)nn4)c3)nn2)cc1O [Compound 2, 4,4′-(pyridine-3,5-diylbis(1H-1,2,3-triazole-4,1-diyl))bis(2-hydroxybenzoic acid)]
primer extension activity with XNTPs ([1]; FIG. 5 gel, compound at various concentrations (lanes 8-10)): significantly enhances primer extension activity

O=C(O)c1ccc(-n2cc(-c3cc([N+](=O)[O-])cc(-c4cn(-c5ccc(C(=O)O)c(O)c5)nn4)n3)nn2)cc1O [Compound 11, 4,4′-((4-nitropyridine-2,6-diyl)bis(1H-1,2,3-triazole-4,1-diyl))bis(2-hydroxybenzoic acid)]
polymerization of XNTPs into full length Xpandomer copies (PEM activity) [2]: enable XNTP polymerization at least as efficiently as compound 1

COc1cc(-c2cn(-c3ccc(C(=O)O)c(O)c3)nn2)nc(-c2cn(-c3ccc(C(=O)O)c(O)c3)nn2)c1 [Compound 9, 4,4′-((4-methoxypyridine-2,6-diyl)bis(1H-1,2,3-triazole-4,1-diyl))bis(2-hydroxybenzoic acid)]
polymerization of XNTPs into full length Xpandomer copies (PEM activity) [2]: enable XNTP polymerization at least as efficiently as compound 1

O=C(O)c1ccc(-n2cc(-c3cccc(-c4cn(-c5ccc(C(=O)O)c(O)c5)nn4)c3)nn2)cc1O [Compound 3, 4,4′-(1,3-phenylenebis(1H-1,2,3-triazole-4,1-diyl))bis(2-hydroxybenzoic acid)]
DNA polymerase-mediated primer extension with XNTPs (length of extension products) [1]: considerably longer extension products

CCNC(=O)c1cc(-c2cn(-c3ccc(C(=O)O)c(O)c3)nn2)nc(-c2cn(-c3ccc(C(=O)O)c(O)c3)nn2)c1 [Compound 17, 4,4′-((4-(ethylcarbamoyl)pyridine-2,6-diyl)bis(1H-1,2,3-triazole-4,1-diyl))bis(2-hydroxybenzoic acid)]
polymerization of XNTPs into lengthy Xpandomer copies (PEM activity) [3]: enable polymerization of XNTPs into lengthy Xpandomer copies of the 100mer template in a manner comparable to that of compound 14 | polymerization of XNTPs into lengthy Xpandomer copies, combination of PEMs ([3]; combination of 2 Mm compound 14 and 0.1 Mm or 0.3 Mm compound 17, FIG. 13 lanes 7-9): also enabled polymerization of XNTPs into lengthy Xpandomer copies of the 100mer template | PEM activity on an RNA template [4]: display PEM activity on an RNA template

O=C(O)c1ccc(-n2cc(-c3ccc4[nH]c5ccc(-c6cn(-c7ccc(C(=O)O)c(O)c7)nn6)cc5c4c3)nn2)cc1O [Compound 4, 4,4′-((9H-carbazole-3,6-diyl)bis(1H-1,2,3-triazole-4,1-diyl))bis(2-hydroxybenzoic acid)]
DNA polymerase-mediated primer extension with XNTPs (length of extension products) [1]: considerably longer extension products

COC(=O)c1cc(-c2cn(-c3ccc(C(=O)O)c(O)c3)nn2)nc(-c2cn(-c3ccc(C(=O)O)c(O)c3)nn2)c1 [Compound 16, 4,4′-((4-(methoxycarbonyl)pyridine-2,6-diyl)bis(1H-1,2,3-triazole-4,1-diyl))bis(2-hydroxybenzoic acid)]
polymerization of XNTPs into lengthy Xpandomer copies (PEM activity) [3]: enable polymerization of XNTPs into lengthy Xpandomer copies of the 100mer template in a manner comparable to that of compound 14 | polymerization of XNTPs into full length copies, combination of PEMs ([3]; combination of 2 Mm compound 16 and 0.1 Mm or 0.3 Mm compound 18, FIG. 13 lanes 10-12): enable polymerization of XNTPS into full length copies of the 100mer template

Source: patent US12698523B2, “Enhancement of nucleic acid polymerization by aromatic compounds” (priority 2019, dated 2026)
